What all share (type): biochemical
The target in one assay is T1, human NTPDase1 (Homo sapiens, UniProt P49961).
T1 construct: expressed in transfected cells; host or cells: COS-7 cells (membrane preparation)
T1 sequence (P49961 1-510): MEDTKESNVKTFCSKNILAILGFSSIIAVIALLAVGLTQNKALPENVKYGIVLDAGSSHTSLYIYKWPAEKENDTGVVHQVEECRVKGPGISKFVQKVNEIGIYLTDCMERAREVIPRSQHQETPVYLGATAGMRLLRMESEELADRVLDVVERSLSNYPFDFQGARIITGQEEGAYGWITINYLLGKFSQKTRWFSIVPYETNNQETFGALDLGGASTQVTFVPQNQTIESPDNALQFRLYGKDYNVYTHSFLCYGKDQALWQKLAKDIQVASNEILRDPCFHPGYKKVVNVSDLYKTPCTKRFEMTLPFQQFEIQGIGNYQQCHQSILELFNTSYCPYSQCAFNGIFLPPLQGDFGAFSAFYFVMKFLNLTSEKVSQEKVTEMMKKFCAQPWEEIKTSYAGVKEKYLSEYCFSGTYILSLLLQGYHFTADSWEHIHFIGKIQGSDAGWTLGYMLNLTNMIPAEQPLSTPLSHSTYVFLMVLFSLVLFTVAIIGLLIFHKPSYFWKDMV
As to the kind of experiment: Malachite green assay, human NTPDase1. Conditions: 2 μM compound, 50 µM ATP, COS-7 membrane preparation; for inhibition at 2 µM: read-out: % inhibition at 2 μM concentration, NTPDase1. As to the method: (§1) Membrane preparations expressing human NTPDase1, -2, -3, or -8, respectively, were obtained as previously described ([Sévigny et al., 1997]; [Cogan et al., 1999]; [Kukulski et al., 2005]; [Lecka et al., 2013]; [Lee et al., 2018]). Enzyme inhibition assays were performed using the malachite green assay in analogy to published procedures with some modifications ([Dou et al., 2018]). The reaction buffer contained 10 mM HEPES, 2 mM CaCl2, and 1 mM MgCl2 (pH 7.4) in a final volume of 50 μL in transparent 96-well half-area plates. The compounds were initially tested at a final concentration of 2 µM using a COS-7-cell membrane preparation expressing the appropriate NTPDase isoenzyme (protein amount: 143 ng for NTPDase1, 175 ng for NTPDase2, 152 ng for NTPDase3, and 175 ng for NTPDase8). Preincubated of the enzyme preparations was perfomred at 37°C in the presence or absence of test compounds with gentle shaking (Eppendorf Thermomixer comfort at 500 rpm) for 5 min. […] ([Kukulski et al., 2005]). After 15 min of incubation at 37°C with gentle shaking, the reaction was stopped by the addition of the detection reagents (20 µL malachite green solution, 0.6 mM, and 30 µL of ammonium molybdate solution, 20 mM, in 1.5 M sulfuric acid). The released inorganic phosphate was quantified after 20 min of gentle shaking at 25°C by measuring the absorption of the malachite green-phosphomolybdate complex at 600 nm using a BMG PheraStar FS plate reader (BMG Labtech GmbH, Ortenberg, Germany). The corrected absorption was calculated by subtracting the absorption of the negative control samples, which were incubated with previously denatured enzyme (90°C, 15 min). Full concentration-inhibition curves were determined with inhibitor concentrations ranging from 0.03 to 30 µM in the presence of 2% DMSO. Inhibition-type experiments were performed with 25, 50, 100, 150 and 200 µM ATP as substrate for NTPDase2 in the presence of inhibitor 20 (0, 0.25, 0.5, and 1 µM) and 25, 50, 100 and 150 µM ATP substrate for NTPDase3 and compound 42 (0.25, 0.5, and 1 µM). For all of the presented data, at least three independent experiments were performed, and IC50 values were calculated by GraphPad Prism 8 software.
(§2) Inhibition of human NTPDases was performed using the malachite green assay, which was established on a robotic system (Z’ factors > 0.70) ([Baykov et al., 1988]; [Fiene et al., 2015]). The malachite green assay enables the detection of the phosphate produced by the enzymatic hydrolysis of nucleotides. A fixed substrate concentration of 50 µM ATP for NTPDase1 and 100 µM for NTPDase2, -3, and -8 was employed. Test compounds were initially screened at a concentration of 2 μM. […] A total of 48 synthesized anthraquinone derivatives including 14 new compounds not previously described in the literature were evaluated for their inhibitory activity at human NTPDase1, -2, -3, and -8 (for results see Table 1).

Another assay addresses T2, human NTPDase2 (Homo sapiens, UniProt Q9Y5L3).
T2 construct: expressed in transfected cells; host or cells: COS-7 cells (membrane preparation)
T2 sequence (Q9Y5L3 1-495): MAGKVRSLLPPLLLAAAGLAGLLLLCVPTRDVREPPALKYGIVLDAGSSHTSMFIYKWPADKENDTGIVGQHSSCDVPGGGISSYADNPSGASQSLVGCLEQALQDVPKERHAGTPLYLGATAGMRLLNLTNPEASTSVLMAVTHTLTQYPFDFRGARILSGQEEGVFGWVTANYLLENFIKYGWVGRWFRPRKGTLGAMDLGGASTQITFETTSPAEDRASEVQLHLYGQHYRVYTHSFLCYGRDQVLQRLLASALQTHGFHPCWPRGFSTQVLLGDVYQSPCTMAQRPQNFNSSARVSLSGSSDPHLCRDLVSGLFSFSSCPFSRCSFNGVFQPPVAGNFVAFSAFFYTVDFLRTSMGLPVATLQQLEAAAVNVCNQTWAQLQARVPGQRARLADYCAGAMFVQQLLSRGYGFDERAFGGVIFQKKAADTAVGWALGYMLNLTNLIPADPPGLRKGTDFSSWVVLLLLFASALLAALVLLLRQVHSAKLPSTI
As to the kind of experiment: Malachite green assay, human NTPDase2. Conditions: 100 µM ATP, COS-7 membrane preparation; for inhibition at 2 µM: read-out: % inhibition at 2 μM concentration, NTPDase2; for IC50: read-out: IC50 ± SEM, NTPDase2. As to the method: as §1, §2

The next assay concerns the target T3, human NTPDase3 (Homo sapiens, UniProt O75355).
T3 construct: expressed in transfected cells; host or cells: COS-7 cells (membrane preparation)
T3 sequence (O75355 1-529): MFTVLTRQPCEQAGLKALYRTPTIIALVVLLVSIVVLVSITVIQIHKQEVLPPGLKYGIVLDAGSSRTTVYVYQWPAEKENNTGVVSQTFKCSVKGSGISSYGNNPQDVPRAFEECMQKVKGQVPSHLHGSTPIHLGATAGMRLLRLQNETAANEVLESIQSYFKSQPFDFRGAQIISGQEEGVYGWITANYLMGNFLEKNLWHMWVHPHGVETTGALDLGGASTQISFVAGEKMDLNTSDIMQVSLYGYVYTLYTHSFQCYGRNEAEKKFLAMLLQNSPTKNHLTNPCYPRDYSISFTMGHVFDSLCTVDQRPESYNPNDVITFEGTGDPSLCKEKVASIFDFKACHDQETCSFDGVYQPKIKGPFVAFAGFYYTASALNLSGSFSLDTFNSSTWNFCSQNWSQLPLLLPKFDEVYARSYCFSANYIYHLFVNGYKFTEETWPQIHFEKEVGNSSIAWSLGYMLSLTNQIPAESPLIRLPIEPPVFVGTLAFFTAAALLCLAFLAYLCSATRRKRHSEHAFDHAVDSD
As to the kind of experiment: Malachite green assay, human NTPDase3. Conditions: for inhibition at 2 µM: 2 μM compound, read-out: % inhibition at 2 μM concentration, NTPDase3; for inhibition at 2 µM / IC50: 100 µM ATP, COS-7 membrane preparation; for IC50: read-out: IC50 ± SEM, NTPDase3. As to the method:
as §1, §2

The target of another assay is T4, human NTPDase8 (Homo sapiens, UniProt Q5MY95).
T4 construct: expressed in transfected cells; host or cells: COS-7 cells (membrane preparation)
T4 sequence (Q5MY95 1-495): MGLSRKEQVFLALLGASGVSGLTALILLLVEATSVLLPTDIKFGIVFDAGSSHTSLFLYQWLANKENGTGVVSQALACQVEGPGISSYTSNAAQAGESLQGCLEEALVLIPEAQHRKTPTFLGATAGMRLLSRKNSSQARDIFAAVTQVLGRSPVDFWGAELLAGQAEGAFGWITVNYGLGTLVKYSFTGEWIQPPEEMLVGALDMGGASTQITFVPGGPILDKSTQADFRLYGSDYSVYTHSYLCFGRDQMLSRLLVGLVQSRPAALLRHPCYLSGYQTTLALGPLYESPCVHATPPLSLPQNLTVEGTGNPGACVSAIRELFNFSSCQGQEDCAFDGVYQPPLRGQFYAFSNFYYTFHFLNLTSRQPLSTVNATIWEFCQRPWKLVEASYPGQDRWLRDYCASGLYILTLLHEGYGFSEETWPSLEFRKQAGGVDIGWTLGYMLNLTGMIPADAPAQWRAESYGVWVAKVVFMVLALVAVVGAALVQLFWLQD
Nature of the assay: Malachite green assay, human NTPDase8. Conditions: for inhibition at 2 µM: read-out: % inhibition at 2 μM concentration, NTPDase8. As to the method:
as §1, §2

[1] abbreviates: 2 μM compound, 100 µM ATP, COS-7 membrane preparation.

The text below walks through data of PMC7481482, “Development of Anthraquinone Derivatives as Ectonucleoside Triphosphate Diphosphohydrolase (NTPDase) Inhibitors With Selectivity for NTPDase2 and NTPDase3” (Frontiers in Pharmacology, 2020).

Molecules are shown by their SMILES.

For the molecule `Nc1c(Br)cc(Nc2cccc(C(=O)O)c2)c2c1C(=O)c1ccccc1C2=O` [Compound 52], the inhibition at 2 µM is -2% on human NTPDase1, -5% at human NTPDase2 (2 μM compound), 1% at human NTPDase3 and 3% at human NTPDase8 (setting [1]).
As for `Nc1ccc(Nc2cc(S(=O)(=O)O)c(N)c3c2C(=O)c2ccccc2C3=O)cc1S(=O)(=O)O` [Compound 32], the inhibition at 2 µM was 10% on human NTPDase1, 5% at human NTPDase2 (2 μM compound) and -20% on human NTPDase8 (setting [1]). Moreover, the IC50 on human NTPDase3 was found to be 1730 ± 550 nM.
For `Nc1c(S(=O)(=O)O)cc(Nc2cccc3cccc(S(=O)(=O)O)c23)c2c1C(=O)c1ccccc1C2=O` [Compound 17], the inhibition at 2 µM on human NTPDase1 was -1%; at human NTPDase2 (2 μM compound), 15%; on human NTPDase8 (setting [1]), -11%. For the same molecule, on human NTPDase3, the IC50 was determined as 1640 ± 260 nM.
Consider `Nc1c(S(=O)(=O)O)cc(Nc2ccc(S(=O)(=O)O)c(Nc3nc(Cl)nc(Cl)n3)c2)c2c1C(=O)c1ccccc1C2=O` [Compound 42, 1-amino-4-[3-(4,6-dichlorotriazin-2-ylamino)-4-sulfophenylamino]-9,10-dioxo-9,10-dihydroanthracene-2-sulfonate], for which the inhibition at 2 µM on human NTPDase1 was -2%; on human NTPDase2 (2 μM compound) it was 10%; on human NTPDase8 (setting [1]) it was -7%. For the same molecule, on human NTPDase3, the IC50 came out at 390 ± 41 nM. Besides, on human NTPDase3 (Hanes-Woolf plot, 25-150 µM ATP, inhibitor 0.25, 0.5, 1 µM), the “inhibition type, NTPDase3” value was “mixed-type”.
Turning to `Cc1ccc2ccccc2c1Nc1cc(S(=O)(=O)O)c(N)c2c1C(=O)c1ccccc1C2=O` [Compound 16], the inhibition at 2 µM was 3% at human NTPDase1, -21% at human NTPDase3 and 3% at human NTPDase8 (setting [1]). Also, on human NTPDase2, the IC50 is 5620 ± 720 nM.
Regarding `Nc1c(S(=O)(=O)O)cc(Nc2ccc(Nc3nc(Cl)nc(Nc4cccc(S(=O)(=O)O)c4)n3)c(S(=O)(=O)O)c2)c2c1C(=O)c1ccccc1C2=O` [Compound 5, reactive blue-2, reference compound], the “% inhibition at 2 μM concentration, NTPDase1” value on human NTPDase1 is given as “(17) %”. For the same molecule, the “% inhibition at 2 μM concentration, NTPDase2” value at human NTPDase2 (2 μM compound) was “(42) %”. The IC50 at human NTPDase3 was found to be 942 ± 24 nM. At human NTPDase8, the “inhibitory activity at NTPDase8 (in words)” value is “inactive”. Moreover, the “% inhibition at 2 μM concentration, NTPDase8” value on human NTPDase8 (setting [1]) is reported as “(-8) %”.
`Nc1c(S(=O)(=O)O)cc(NCCc2ccccc2)c2c1C(=O)c1ccccc1C2=O` [Compound 13]: the inhibition at 2 µM was -12% on human NTPDase1, 12% at human NTPDase2 (2 μM compound), -3% at human NTPDase3 and -3% on human NTPDase8 (setting [1]).
With `Nc1c(S(=O)(=O)O)cc(Nc2cccc([N+](=O)[O-])c2)c2c1C(=O)c1ccccc1C2=O` [Compound 24], the results for the inhibition at 2 µM at human NTPDase1, on human NTPDase2 (2 μM compound) and at human NTPDase8 (setting [1]) were -32%, 19% and 3%, respectively. In addition, the IC50 at human NTPDase3 is 15300 ± 2500 nM.
For the molecule `Nc1c(S(=O)(=O)O)cc(Nc2cccc(F)c2)c2c1C(=O)c1ccccc1C2=O` [Compound 21], the inhibition at 2 µM was -8% on human NTPDase1, 15% at human NTPDase2 (2 μM compound), 0% at human NTPDase3 and -1% at human NTPDase8 (setting [1]).
Turning to `Nc1c(S(=O)(=O)O)cc(Nc2ccc3cc(C(=O)O)ccc3c2)c2c1C(=O)c1ccccc1C2=O` [Compound 19], the results for the inhibition at 2 µM at human NTPDase1, on human NTPDase2 (2 μM compound) and at human NTPDase8 (setting [1]) were 0%, 13% and -35%, respectively. Further, the IC50 at human NTPDase3 worked out at 4720 ± 400 nM.
`Nc1c(S(=O)(=O)O)cc(Nc2ccc(Sc3ccccc3)c(Cl)c2)c2c1C(=O)c1ccccc1C2=O` [Compound 48, Sodium 1-amino-4-(3-chloro-4-phenylsulfanyl)-phenylamino-9,10-dioxo-9,10-dihydroanthracene-2-sulfonate]: the inhibition at 2 µM at human NTPDase1 was 29%; at human NTPDase3, 20%; on human NTPDase8 (setting [1]), 14%. The IC50 on human NTPDase2 turned out to be 551 ± 195 nM.
`Cc1ccc(C)c(Sc2ccc(Nc3cc(S(=O)(=O)O)c(N)c4c3C(=O)c3ccccc3C4=O)cc2)c1` [Compound 50]: the inhibition at 2 µM at human NTPDase1 stood at 38%; on human NTPDase3, 34%; on human NTPDase8 (setting [1]), 17%. Further, the IC50 at human NTPDase2 came to 1130 ± 270 nM.

As usually defined, the IC50 is the concentration at which inhibition is half-maximal.
